Results taken from patent publication US20190038632A1 (BAYER PHARMA AKTIENGESELLSCHAFT, priority 2016, published 2019).
Values joined by “and” are separate entries in the source; they are usually repeats but may differ in a detail not shown here. Equal values may be shown once.

Tested on: NHL patients
Test: clinical study A: copanlisib therapy in NHL patients, best response and PFS, also by baseline tumor gene expression
Type: in vivo, human
Conditions: for PFS (Independent*) Days / Best Response (Independent*): one line per subject; for PFS (Independent*) Days: censor status in column beside
[1] = mantle cell lymphoma patients (N = 2)

COc1c(OCCCN2CCOCC2)ccc2c1N=C(NC(=O)c1cnc(N)nc1)N1CCN=C21 [copanlisib]
HR for PFS (CSTB, median gene expression level as cutoff, p=0.07): 3.3 (0.9-12)
median PFS days (CSTB, median gene expression level as cutoff, shorter-PFS group (high expression per text)): 74 days
HR for PFS (MT2A, median gene expression level as cutoff, p=0.30): 1.3 (0.8-2.2)
PFS (NHL patients with low BCR WGS (median cut-off 41.7)): 62 days
HR for PFS (NOP10, median gene expression level as cutoff, p=0.23): 1.9 (0.7-5.4)
PFS (Independent*) Days (diffuse large B-cell lymphoma patients (N = 5)): 56 days and 13 days and 49 days
PFS (Independent*) Days (follicular lymphoma patients (N = 10)): 53 days and 74 days and 28 days
Best Response (Independent*) (follicular lymphoma patients (N = 10), data cutoff February 2015): CRu
HR for PFS (high vs low BCR WGS, nominal Cox model p<0.0001): 0.035
HR for PFS (high vs low GPR18 expression, nominal Cox model p<0.01): 0.17
Best Response (Independent*) [1]: CRu
PFS (Independent*) Days [1]: 7 days
PFS (Independent*) Days (trans. indolent lymphoma patients (N = 2)): 16 days and 42 days
